One series deals with PRMT6 (Homo sapiens, UniProt Q96LA8). The series is described as follows: biochemical.
Series [1] deals with MLL2 (Homo sapiens, UniProt O14686).
Series [2] is described as follows: Liver microsomal stability assay, monkey. The following applies: for Metabolic stability, % remaining of RK-701: Monkey. The class given is in vitro ADME. Here is the method: (§1) [Human/Rat] Liver microsome analyses (human, rat) were performed in triplicate by the Sumika Chemical Analysis Service (SCAS) according to the standard protocols. […] [Dog/Monkey] Liver microsome analyses (dog, monkey) were performed in duplicate by RIKEN according to the same protocols as SCAS.

Another series concerns the target PRMT7 (Homo sapiens, UniProt Q9NVM4). The series can be described thus: Radioisotope-based methyltransferase assay (selectivity).
The target in the next series is PRMT5/MEP50 (Homo sapiens, UniProt O14744). The series is described as follows: biochemical.
The nature of series [3]: Liver microsomal stability assay, human. The class given is in vitro ADME. The following applies: for Metabolic stability, % remaining of RK-701: Human. Here is the method:
as §1

The target of series [4] is MLL2.
The subject of series [5] is CHD3 and CHD4 occupancy at the BGLT3 gene locus. The series can be described thus: ChIP-qPCR with antibodies against CHD3 or CHD4 in HUDEP-2 cells. The class given is cell-based, human. The following applies: HUDEP-2, 1 μM, 4 days. Here is the method: A total of 0.5–1 × 10^6 cells were cross-linked with 1% formaldehyde for 10 min at room temperature and the reaction was quenched with 250 mM glycine. Cross-linked cells were then lysed with buffer 1 (15 mM Tris-HCl (pH 7.5), 60 mM KCl, 15 mM NaCl, 5 mM MgCl2, 0.1 mM EGTA, 300 mM sucrose, […], 1 mM phenylmethanesulfonyl fluoride (PMSF), 0.5% NP40) and incubated on ice for 10 min. After centrifugation, the pellet was re-suspended in buffer 2 (15 mM Tris-HCl (pH 7.5), 60 mM KCl, 15 mM NaCl, 5 mM MgCl2, 0.1 mM EGTA, 1.2 M sucrose, […], 1 mM PMSF). After centrifugation, the pellet was then re-suspended in MNase buffer (50 mM Tris-HCl (pH 7.5), 1 mM CaCl2, 4 mM MgCl2, 320 mM sucrose, 1 mM PMSF) and digested with 100 U of micrococcal nuclease (Takara) at 37 °C for 15 min. […] The samples were analyzed by qPCR. […] ChIP-seq analysis were analyzed Cutadapt (V1.9.1) for QC, FastQC (V0.10.1) for QC assessment, Bowtie (V2.1.0) for mapping, strand cross-correlation (SCC) for ChIP quality assessment, MACS2 for peak calling, and R package ChIPpeakAnno for Peak annotated.

Values joined by “and” are separate entries in the source; they are usually repeats but may differ in a detail not shown here. Identical values can stand only once.

MLL2 (Homo sapiens, UniProt O14686), sequence (O14686 5319-5537): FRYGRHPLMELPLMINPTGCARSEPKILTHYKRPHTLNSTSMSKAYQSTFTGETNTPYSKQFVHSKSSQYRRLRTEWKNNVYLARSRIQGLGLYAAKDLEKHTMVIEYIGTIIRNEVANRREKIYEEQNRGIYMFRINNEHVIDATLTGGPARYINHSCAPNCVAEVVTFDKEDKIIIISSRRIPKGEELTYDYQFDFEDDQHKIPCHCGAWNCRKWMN
MLL2 (Homo sapiens, UniProt O14686), sequence (Q9C005 whole entry, further chain): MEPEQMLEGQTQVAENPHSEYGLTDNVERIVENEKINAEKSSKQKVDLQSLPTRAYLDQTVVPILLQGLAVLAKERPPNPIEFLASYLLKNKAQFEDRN
MLL2 (Homo sapiens, UniProt O14686), sequence (Q15291 whole entry, further chain): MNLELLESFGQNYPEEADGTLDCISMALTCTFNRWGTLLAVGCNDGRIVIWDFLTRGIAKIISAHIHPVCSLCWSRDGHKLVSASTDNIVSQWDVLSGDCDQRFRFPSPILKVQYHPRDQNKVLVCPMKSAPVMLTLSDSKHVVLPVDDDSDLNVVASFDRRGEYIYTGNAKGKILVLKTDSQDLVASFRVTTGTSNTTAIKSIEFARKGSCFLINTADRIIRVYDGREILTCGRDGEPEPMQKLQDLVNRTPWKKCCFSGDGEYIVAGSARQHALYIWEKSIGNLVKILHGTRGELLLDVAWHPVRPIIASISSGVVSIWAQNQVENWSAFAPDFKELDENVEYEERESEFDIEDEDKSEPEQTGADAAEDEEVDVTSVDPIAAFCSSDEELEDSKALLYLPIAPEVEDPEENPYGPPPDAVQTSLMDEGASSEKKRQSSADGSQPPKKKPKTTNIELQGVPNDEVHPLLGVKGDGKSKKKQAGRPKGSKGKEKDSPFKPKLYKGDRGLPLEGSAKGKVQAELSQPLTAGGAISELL
MLL2 (Homo sapiens, UniProt O14686), sequence (Q9UBL3 whole entry, further chain): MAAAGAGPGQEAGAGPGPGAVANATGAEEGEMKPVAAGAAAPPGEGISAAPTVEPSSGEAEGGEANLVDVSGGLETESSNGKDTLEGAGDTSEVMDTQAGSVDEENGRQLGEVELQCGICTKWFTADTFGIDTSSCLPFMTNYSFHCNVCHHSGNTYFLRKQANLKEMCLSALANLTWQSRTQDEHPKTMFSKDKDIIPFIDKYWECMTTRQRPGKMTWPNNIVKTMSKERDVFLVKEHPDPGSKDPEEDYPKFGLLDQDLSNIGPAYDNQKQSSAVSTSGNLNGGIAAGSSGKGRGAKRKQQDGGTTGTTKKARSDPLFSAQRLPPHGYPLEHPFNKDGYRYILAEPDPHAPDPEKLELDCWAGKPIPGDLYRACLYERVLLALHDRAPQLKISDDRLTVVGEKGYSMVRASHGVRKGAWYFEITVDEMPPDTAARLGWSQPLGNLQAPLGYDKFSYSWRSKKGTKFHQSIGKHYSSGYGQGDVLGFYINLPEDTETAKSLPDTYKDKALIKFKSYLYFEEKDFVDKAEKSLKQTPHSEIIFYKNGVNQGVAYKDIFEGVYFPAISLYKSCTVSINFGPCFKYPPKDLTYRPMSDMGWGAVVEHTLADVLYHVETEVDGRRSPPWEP
MLL2, sequence (O14686 5319-5537): as the sequence (O14686 5319-5537) above
MLL2, sequence (Q9C005 whole entry, further chain): as the sequence (Q9C005 whole entry, further chain) above
MLL2, sequence (Q15291 whole entry, further chain): as the sequence (Q15291 whole entry, further chain) above
MLL2, sequence (Q9UBL3 whole entry, further chain): as the sequence (Q9UBL3 whole entry, further chain) above
PRMT6, sequence (Q96LA8 whole entry): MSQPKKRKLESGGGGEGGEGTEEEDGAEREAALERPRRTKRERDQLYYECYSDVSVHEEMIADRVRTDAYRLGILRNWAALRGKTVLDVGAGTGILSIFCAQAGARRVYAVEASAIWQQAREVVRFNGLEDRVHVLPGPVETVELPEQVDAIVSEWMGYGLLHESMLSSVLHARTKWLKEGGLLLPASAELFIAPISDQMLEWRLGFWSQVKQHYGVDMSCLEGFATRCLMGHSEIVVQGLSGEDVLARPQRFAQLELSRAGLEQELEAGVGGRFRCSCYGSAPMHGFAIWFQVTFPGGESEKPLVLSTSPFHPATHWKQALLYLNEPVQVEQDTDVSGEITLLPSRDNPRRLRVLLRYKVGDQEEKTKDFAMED
PRMT5/MEP50, sequence (O14744 whole entry): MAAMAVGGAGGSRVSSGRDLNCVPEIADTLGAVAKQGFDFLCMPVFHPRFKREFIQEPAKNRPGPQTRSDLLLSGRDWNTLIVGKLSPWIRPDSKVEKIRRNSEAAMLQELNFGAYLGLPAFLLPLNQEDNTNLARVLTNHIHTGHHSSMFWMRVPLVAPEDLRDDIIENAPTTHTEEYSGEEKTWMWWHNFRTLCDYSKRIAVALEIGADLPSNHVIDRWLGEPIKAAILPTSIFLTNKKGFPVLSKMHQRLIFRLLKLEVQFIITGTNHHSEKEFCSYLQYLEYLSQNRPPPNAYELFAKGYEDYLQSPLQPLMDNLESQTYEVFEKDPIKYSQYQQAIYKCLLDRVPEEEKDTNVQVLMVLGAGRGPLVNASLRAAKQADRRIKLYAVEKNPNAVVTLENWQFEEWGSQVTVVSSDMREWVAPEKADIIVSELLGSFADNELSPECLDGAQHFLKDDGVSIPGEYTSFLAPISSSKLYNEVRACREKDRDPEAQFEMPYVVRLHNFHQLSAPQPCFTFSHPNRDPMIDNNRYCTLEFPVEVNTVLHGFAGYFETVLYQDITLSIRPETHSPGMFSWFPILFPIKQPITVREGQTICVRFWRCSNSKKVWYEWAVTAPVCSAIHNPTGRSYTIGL
PRMT5/MEP50, sequence (Q9BQA1 whole entry partner): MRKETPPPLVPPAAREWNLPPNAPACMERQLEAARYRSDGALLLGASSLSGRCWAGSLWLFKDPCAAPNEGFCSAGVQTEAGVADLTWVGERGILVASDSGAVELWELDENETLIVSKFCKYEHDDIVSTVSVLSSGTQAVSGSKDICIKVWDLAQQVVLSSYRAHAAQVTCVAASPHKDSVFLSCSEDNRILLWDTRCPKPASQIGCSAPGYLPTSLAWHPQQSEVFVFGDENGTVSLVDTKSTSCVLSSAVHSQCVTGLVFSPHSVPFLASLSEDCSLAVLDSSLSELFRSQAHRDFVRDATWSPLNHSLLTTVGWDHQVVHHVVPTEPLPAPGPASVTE
PRMT7, sequence (Q9NVM4 whole entry): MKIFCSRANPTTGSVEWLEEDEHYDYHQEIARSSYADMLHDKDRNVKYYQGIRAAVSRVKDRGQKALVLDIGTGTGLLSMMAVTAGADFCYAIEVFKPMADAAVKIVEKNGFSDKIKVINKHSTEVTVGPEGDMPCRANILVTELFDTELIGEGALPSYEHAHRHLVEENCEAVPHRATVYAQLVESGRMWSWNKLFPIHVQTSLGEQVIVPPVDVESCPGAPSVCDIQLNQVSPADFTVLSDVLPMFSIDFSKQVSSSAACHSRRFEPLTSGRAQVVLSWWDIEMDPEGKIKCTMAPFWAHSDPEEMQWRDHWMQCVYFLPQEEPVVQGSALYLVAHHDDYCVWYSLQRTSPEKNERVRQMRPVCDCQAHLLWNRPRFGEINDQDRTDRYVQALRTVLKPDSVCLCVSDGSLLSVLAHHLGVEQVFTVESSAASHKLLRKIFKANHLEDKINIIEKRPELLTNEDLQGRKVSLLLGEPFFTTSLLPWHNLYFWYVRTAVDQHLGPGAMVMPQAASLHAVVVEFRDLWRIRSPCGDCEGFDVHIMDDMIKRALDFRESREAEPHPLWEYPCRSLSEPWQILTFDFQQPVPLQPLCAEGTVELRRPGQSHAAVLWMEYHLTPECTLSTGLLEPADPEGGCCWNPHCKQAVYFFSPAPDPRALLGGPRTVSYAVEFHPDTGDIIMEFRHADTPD

With `Nc1ncnc2c1ncn2[C@@H]1O[C@H](CSCC[C@H](N)C(=O)O)[C@@H](O)[C@H]1O` [SAH, S-(5'-Adenosyl)-L-homocysteine, reference compound], the IC50 (in general, the concentration needed to halve the response being measured) on PRMT6 is 0.408 µM; at MLL2 [1] it was 11.6 µM.

For the compound `Cc1c(C(=O)NC(CCC2CC2)C(=O)Nc2ccc(C#N)cc2)[nH]c2c1C(=O)CC(C)(C)C2` (stereo not shown) [RK-701], the “Metabolic stability, % remaining of RK-701” value worked out at 117% in series [2] (Time 5, replicate values); 94.6% in series [2] (Time 10, replicate values); 60% in series [2] (Time 20, replicate values); 44.3% in series [2] (Time 30, replicate values); 26% in series [2] (Time 45, replicate values); 19.4% in series [2] (Time 60, replicate values). Moreover, the “Metabolic stability, % remaining of RK-701” value in series [3] (Time 5, replicate values) is 103.5% and 98.1%; in series [3] (Time 10, replicate values) it was 104.9% and 98.1%; in series [3] (Time 20, replicate values), 89.6% and 79.6%; in series [3] (Time 30, replicate values), 78.5% and 70.7%; in series [3] (Time 60, replicate values) it was 68.6% and 60.8%. For the same compound, the amount remaining at 5 min, 1 µM turned out to be 106% in series [2] (monkey, liver microsomes, Metabolic stability, % remaining of RK-701, Monkey, Time 5, replicate values) and 93.1% in series [3] (human, liver microsomes, Metabolic stability, % remaining of RK-701, Human, Time 5, replicate values). The amount remaining at 10 min, 1 µM in series [2] (monkey, liver microsomes, Metabolic stability, % remaining of RK-701, Monkey, Time 10, replicate values) was found to be 85.8%; in series [3] (human, liver microsomes, Metabolic stability, % remaining of RK-701, Human, Time 10, replicate values) it was 95.5%. The amount remaining at 20 min, 1 µM turned out to be 57.4% in series [2] (monkey, liver microsomes, Metabolic stability, % remaining of RK-701, Monkey, Time 20, replicate values) and 80.5% in series [3] (human, liver microsomes, Metabolic stability, % remaining of RK-701, Human, Time 20, replicate values). Moreover, the amount remaining at 30 min, 1 µM in series [2] (monkey, liver microsomes, Metabolic stability, % remaining of RK-701, Monkey, Time 30, replicate values) is 42.4%; in series [3] (human, liver microsomes, Metabolic stability, % remaining of RK-701, Human, Time 30, replicate values), 70.4%. In series [2] (monkey, liver microsomes, Metabolic stability, % remaining of RK-701, Monkey, Time 45, replicate values), the share remaining at 45 min, 1 µM came out at 24.2%. The share remaining at 60 min, 1 µM in series [2] (monkey, liver microsomes, Metabolic stability, % remaining of RK-701, Monkey, Time 60, replicate values) came out at 16.8%; in series [3] (human, liver microsomes, Metabolic stability, % remaining of RK-701, Human, Time 60, replicate values), 62.1%. The microsomal CLint at 1 μM was found to be 67 µL/min/mg in series [2] (monkey, liver microsomes, read-out: Metabolic stability in liver microsomes CLint) and 19 µL/min/mg in series [3] (human, liver microsomes, read-out: Metabolic stability in liver microsomes CLint). In addition, the IC50 on PRMT7, against PRMT5/MEP50 and against MLL2 [4] was more than 100 µM throughout. The “stability in liver microsomes” value in series [3] (various species) was “most stable in human liver microsomes”. The “occupancy of CHD4 on the BGLT3 gene locus” value in series [5] was “significantly decreased”.

Source of the values: paper PMC9837035 (Nature Communications, 2023).
